What all share (type): cell-based
The test system of test [1] is Bacillus subtilis NBRC 3134^T. Put plainly: Measurement of minimum inhibitory concentration, dilution method with liquid culture medium. As to conditions: NBRC3134, LB liquid medium, 37° C., 135 rpm, 18 hours, visual observation and OD600. The source says:
The minimum inhibitory concentration (MIC) is one of the antibiotic susceptibility tests, and means the minimum concentration of an antimicrobial substance at which the visible growth of a microorganism can be inhibited. In the research field, the MIC measurement is used, for example, to compare the effects of a new antibiotic substance and a conventional substance, or to examine actions on several strains, and is regarded as an important criterion for evaluating antibiotic substances. The MIC of “HK-1” which was obtained hereunder as the antibacterial active substance was measured using the dilution method with a liquid culture medium.
A piece of ice out of a glycerol stock of G. stearothermophilus stored at −80° C. was planarly inoculated on the LB agar culture medium with a toothpick. This was incubated at 60° C. for 18 hours. One (1) cm^2 of the culture medium was excavated with a toothpick, placed into a long test tube containing 10 mL of a liquid LB culture medium, and subjected to a shaking culture at 60° C., and 300 rpm, for 18 hours. The culture solution was diluted with sterile water to about McF standard No. 1.
The preparation was performed in the same manner as in 1 above, only except that the temperature was changed to 37° C.
Two (2) mg of HK-1 was weighed out into a 2 mL Eppendorf tube using an electric balance. […]

Test [2] deals with Geobacillus stearothermophilus ATCC 7953. Put plainly: Antibacterial activity test in changing pH, paper disk assay. Particulars: 1000 γ in methanol, 50 μL on paper disk, 50° C., 18 hours. How it is done:
Into a 50-mL Falcon tube, 20 mg of HK-1 was weighed out using an electric balance, and therein 20 mL of methanol (1000 γ) was added followed by gentle stirring. Each 3.3 mL was aliquoted to totally two 15-mL Falcon tubes. To one of them 20 μL of 1 N sodium hydroxide was added followed by gentle stirring. The pH was tested with a pH test paper. Ten (10) μL of each sample was subjected to HPLC. The HPLC analysis conditions are as follows. The stability of a compound is regarded as one of the important information for evaluating a substance. This is because, even if the external environment changes, insofar as the compound itself is stable, it can be applied in various situations, and the information leads to acquisition of biological knowledges. Therefore, the stability of the activity was examined by measuring antibacterial activities with respect to G. stearothermophilus, and B. subtilis using the solution prepared in the above “1. Antibacterial spectrum test”. (1) Each 10 mL of the (autoclave treated) LB culture medium (see Example 1) was dispensed into two long test tubes. (2) Into each long test tube, 50 μL of a commercially available G. stearothermophilus spore suspension was seeded. […] The culture medium was taken out from the incubator, and the diameter of the inhibition ring was measured with calipers (Kanon hardened stainless 150 mm).

Test [3] relates to Bacillus subtilis NBRC 3134^T. The test is described as above. As to conditions: 1000 γ in methanol, 50 μL on paper disk, 37° C., 18 hours. The method, then: Into a 50-mL Falcon tube, 20 mg of HK-1 was weighed out using an electric balance, and therein 20 mL of methanol (1000 γ) was added followed by gentle stirring. Each 3.3 mL was aliquoted to totally two 15-mL Falcon tubes. To one of them 20 μL of 1 N sodium hydroxide was added followed by gentle stirring. The pH was tested with a pH test paper. Ten (10) μL of each sample was subjected to HPLC. The HPLC analysis conditions are as follows. The stability of a compound is regarded as one of the important information for evaluating a substance. This is because, even if the external environment changes, insofar as the compound itself is stable, it can be applied in various situations, and the information leads to acquisition of biological knowledges. Therefore, the stability of the activity was examined by measuring antibacterial activities with respect to G. stearothermophilus, and B. subtilis using the solution prepared in the above “1. Antibacterial spectrum test”. (1) In a 200-mL Erlenmeyer flask, 100 mL of a NB culture medium was prepared and sterilized in an autoclave (121° C., 20 min). (2) After cooling to 50° C. or lower, 100 μL of the B. subtilis spore suspension was added. […] The culture medium was taken out from the incubator, and the diameter of the inhibition ring was measured with calipers (Kanon hardened stainless 150 mm).

Values after ≈ are worked out from the molar mass of the structure shown.

`COc1cc(OOc2cc(OC)c3c(c2-c2c(O)c(Cl)c(C)c4c2C(O)c2c(Cl)c(O)cc(O)c2C4=O)C(OC2OC(C)C(O)C2O)c2c(Cl)c(OC)c(Cl)c(C)c2C3=O)c(-c2c(O)c(Cl)c(C)c3c2C(O)c2c(Cl)c(O)cc(O)c2C3=O)c2c1C(=O)c1c(C)c(Cl)c(OC)c(Cl)c1C2OC1OC(C)C(O)C1O` (centres unmarked) [HK-1] returned an MIC in test [1] of 0.78 µg/mL (≈ 0.474 µM). In addition, the inhibition ring diameter in test [2] (solution with pH adjusted to 9) amounted to 22.6 mm; in test [2] (solution with pH not adjusted), 21.9 mm; in test [3] (solution with pH adjusted to 9), 20.2 mm; in test [3] (solution with pH not adjusted), 18.5 mm.

By MIC is commonly meant the smallest concentration in the dilution series that meets the test's criterion for growth inhibition.

The values are drawn from US20220127298A1, “THERMOSPOROTHRIX HAZAKENSIS-DERIVED ANTIBACTERIALLY ACTIVE SUBSTANCE” (KENNAN EISEI KOGYO CO., LTD., priority 2019, published 2022).
